Converted amounts (≈) assume the structure as drawn. Where two headings read alike, the source gives them in different places.
Key:
[1] = tested on: Escherichia coli (Mb 1418); assay: Agar diffusion disc assay, Coli 1418; type: cell-based; details: Escherichia coli, 18 h; @ 20 g/disc; read-out: Inhibition zone diameter, Coli 1418
How it was run: (§1)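 Serial dilutions from a 1 mg/ml methanol solution, 20 μl applied to 6 mm paper discs, dried, and placed on agar seeded with ~10^6 cfu. Overnight (~18 hours) incubation at 25° C; inhibition zone sizes measured to nearest mm, triplicate means; agar diffusion MIC determined per Barry.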

[2] = tested on: Salmonella gallinarum (Mb 1287); assay: Agar diffusion disc assay, Salm 1287; type: cell-based; details: Salmonella enterica, GALLINARUM, 18 h; @ 20 g/disc; read-out: Inhibition zone diameter, Salm 1287
How it was run: as §1

[3] = tested on: Corynebacterium pseudodiphtheriticum (Mb 261, ATCC 9742); assay: Agar diffusion disc assay, Cory 261; type: cell-based; details: Corynebacterium pseudodiphtheriticum, ATCC9742, 18 h; @ 20 g/disc; read-out: Inhibition zone diameter, Cory 261
How it was run: as §1

CCK-A (rat pancreas) [4] = biological target: T1, CCK-A (rat pancreas) (Rattus norvegicus, UniProt P30551); assay: [125I]BHCCK-8 radioligand binding, rat pancreatic preparation; details: read-out: CCK binding inhibition - IC50, [125I]BHCCK
T1 construct: from tissue; host or cells: rat pancreas
T1 sequence (P30551 1-444): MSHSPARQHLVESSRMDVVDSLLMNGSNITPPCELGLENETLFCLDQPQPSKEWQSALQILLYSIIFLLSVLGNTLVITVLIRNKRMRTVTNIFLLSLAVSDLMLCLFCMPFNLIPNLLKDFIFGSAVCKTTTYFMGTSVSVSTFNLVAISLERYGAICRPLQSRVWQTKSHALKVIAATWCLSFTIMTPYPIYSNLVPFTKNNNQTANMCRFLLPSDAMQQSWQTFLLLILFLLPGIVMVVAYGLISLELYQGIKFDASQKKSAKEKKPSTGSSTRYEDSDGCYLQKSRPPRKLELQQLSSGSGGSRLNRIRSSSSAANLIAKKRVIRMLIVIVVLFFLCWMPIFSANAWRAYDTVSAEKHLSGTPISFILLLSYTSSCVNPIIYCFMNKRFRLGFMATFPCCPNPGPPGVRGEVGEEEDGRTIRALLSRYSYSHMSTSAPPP
Description: (§2) The resulting supernatant was re-spun at 20,000×g for 20 minutes. […] Incubations were for 40 minutes at 4° C. and were terminated by filtration and washing with ice cold 100 mM saline. […] Incubations were for 30 minutes at room temperature and were terminated by filtration over GF/C filters and washing with 100 mM NaCl.

[5] = biological target: T2, CCK-B (guinea pig cortex) (Cavia porcellus, UniProt H0VZC5); assay: [125I]BHCCK-8 radioligand binding, guinea pig cortical preparation; details: read-out: CCK binding inhibition - IC50, [125I]BHCCK
T2 construct: guinea pig cortical preparations; from tissue; host or cells: guinea pig brain cortex membranes
T2 sequence (H0VZC5 1-426): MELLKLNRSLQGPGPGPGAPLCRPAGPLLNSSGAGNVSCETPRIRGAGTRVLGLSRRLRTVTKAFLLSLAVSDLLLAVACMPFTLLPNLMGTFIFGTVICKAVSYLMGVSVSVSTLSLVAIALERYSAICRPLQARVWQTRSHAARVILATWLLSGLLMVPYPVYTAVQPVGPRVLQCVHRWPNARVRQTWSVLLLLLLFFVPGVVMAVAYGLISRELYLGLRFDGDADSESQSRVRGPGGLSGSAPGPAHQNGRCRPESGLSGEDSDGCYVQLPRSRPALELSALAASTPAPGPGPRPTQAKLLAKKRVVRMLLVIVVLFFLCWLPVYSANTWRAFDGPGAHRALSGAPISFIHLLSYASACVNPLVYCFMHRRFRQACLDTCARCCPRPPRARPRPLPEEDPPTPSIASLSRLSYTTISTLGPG
Description: as §2

CCK-A (rat pancreas) [6] = biological target: T1, CCK-A (rat pancreas); assay: [3H]L-364,718 CCK-A selective antagonist ligand binding, pancreas; details: for A.R. = agonist ratio: [3H]L-364,718 / [125I]BHCCK; for IC50: read-out: CCK binding inhibition - IC50, [3H]L-364,718
Description: as §2

[7] = tested on: Micrococcus luteus (Mb 1101, ATCC 9341); assay: Agar diffusion disc assay, Micr 1101; type: cell-based; details: Micrococcus luteus; for MIC: read-out: Agar Diffusion MIC versus Micrococcus luteus
How it was run: as §1

[8] = tested on: Streptococcus agalactiae (Mb 2875); assay: Agar diffusion disc assay, Str 2875; type: cell-based; details: Streptococcus agalactiae, 18 h; @ 20 g/disc; read-out: Inhibition zone diameter, Str 2875
How it was run: as §1

[9] = biological target: T2, CCK-B (guinea pig cortex); assay: [3H]L-365,260 CCK-B selective antagonist ligand binding, brain membranes; details: for IC50: read-out: CCK binding inhibition - IC50, [3H]L-365,260
Description: as §2

[10] = tested on: Pseudomonas stutzeri (Mb 1231, ATCC 11607); assay: Agar diffusion disc assay, Pseu 1231; type: cell-based; details: Stutzerimonas stutzeri, ATCC11607, 18 h; @ 20 g/disc; read-out: Inhibition zone diameter, Pseu 1231
How it was run: as §1

Bacillus sp. (Mb 633) = assay: Agar diffusion disc assay, Baci 633; type: cell-based; details: Bacillus, 18 h
How it was run: as §1

[11] = tested on: Staphylococcus aureus (Mb 108, ATCC 6538P); assay: Agar diffusion disc assay, Sta 108; type: cell-based; details: Staphylococcus aureus, ATCC6538P, 18 h; @ 20 g/disc; read-out: Inhibition zone diameter, Sta 108
How it was run: as §1

[12] = tested on: En terobacter aergenes (Mb 835); assay: Agar diffusion disc assay, Ent 835; type: cell-based; details: 18 h; @ 20 g/disc; read-out: Inhibition zone diameter, Ent 835
How it was run: as §1

[13] = tested on: Streptococcus faecium (Mb 2820); assay: Agar diffusion disc assay, Str 2820; type: cell-based; details: Enterococcus faecium, 18 h; @ 20 g/disc; read-out: Inhibition zone diameter, Str 2820
How it was run: as §1

[14] = tested on: Bacillus subtilis (Mb 964, ATCC 6633); assay: Agar diffusion disc assay, Subt 964; type: cell-based; details: Bacillus subtilis, ATCC6633, 18 h; @ 20 g/disc; read-out: Inhibition zone diameter, Subt 964
How it was run: as §1

[15] = tested on: Staphylococcus aureus (Mb 2983); assay: Agar diffusion disc assay, Sta 2983; type: cell-based; details: Staphylococcus aureus, 18 h; @ 20 g/disc; read-out: Inhibition zone diameter, Sta 2983
How it was run: as §1

gastric acid secretion = details: cited from earlier work
[16] = ATCC9341, 18 h, @ 20 g/disc, read-out: Inhibition zone diameter, Micr 1101

Compound	zone of inhibition at 20 µg/disc [1]	zone of inhibition at 20 µg/disc [2]	zone of inhibition at 20 µg/disc [3]	IC50 (CCK-A (rat pancreas) [4])	IC50 [5]	A.R. = agonist ratio (CCK-A (rat pancreas) [6])	IC50 (CCK-A (rat pancreas) [6])	zone of inhibition at 20 µg/disc [7, 16]	MIC ([7]; ATCC9341, 18 h)	zone of inhibition at 20 µg/disc [8]	A.R. = agonist ratio = IC50([3H]L365,260)/IC50([125I]CCK) [9]	IC50 [9]	zone of inhibition at 20 µg/disc [10]	zone of inhibition at 20 µg/disc [11]	zone of inhibition at 20 µg/disc [12]	zone of inhibition at 20 µg/disc [13]	zone of inhibition at 20 µg/disc [14]	zone of inhibition at 20 µg/disc [15]	other results
CC1=C\[C@@H](OC(=O)Nc2ccccc2)CC(=O)Cc2nc(co2)C(=O)N2CCC=C2C(=O)O[C@H](C(C)C)[C@H](C)/C=C/C(=O)NC\C=C\1 [Example 11]	0 mm	0 mm	0 mm	2.3 µM	0.3 µM	1.7	4 µM	14 mm	0.05 µM (≈ 0.0322 µg/mL)	0 mm	5.3	1.6 µM	0 mm	0 mm	0 mm	0 mm	0 mm	0 mm	zone of inhibition at 1.25 µg/disc ([7]; ATCC9341, 1.25 μg/disc, 25° C., ~18 hours, read-out: Mean of triplicate zone size versus Micrococcus luteus): 7 mm; zone of inhibition at 2.5 µg/disc ([7]; ATCC9341, 2.50 μg/disc, 25° C., ~18 hours, read-out: Mean of triplicate zone size versus Micrococcus luteus): 10 mm; zone of inhibition at 5 µg/disc ([7]; ATCC9341, 5.00 μg/disc, 25° C., ~18 hours, read-out: Mean of triplicate zone size versus Micrococcus luteus): 11 mm; zone of inhibition at 10 µg/disc ([7]; ATCC9341, 10.0 μg/disc, 25° C., ~18 hours, read-out: Mean of triplicate zone size versus Micrococcus luteus): 12 mm; zone of inhibition at 20 µg/disc ([7]; ATCC9341, 20.0 μg/disc, 25° C., ~18 hours, read-out: Mean of triplicate zone size versus Micrococcus luteus): 12 mm; zone of inhibition at 20 µg/disc (Bacillus sp. (Mb 633); @ 20 g/disc, read-out: Inhibition zone diameter, Baci 633): 0 mm
CC1=C\[C@@H](OC(=O)Nc2cccc(C)c2)CC(=O)Cc2nc(co2)C(=O)N2CCC=C2C(=O)O[C@H](C(C)C)[C@H](C)/C=C/C(=O)NC\C=C\1 [Example 12]	0 mm	0 mm	0 mm	1.9 µM	0.4 µM	4.2	8 µM	9 mm	> 243 µM	0 mm	7.5	3 µM	0 mm	0 mm	0 mm	0 mm	0 mm	0 mm	zone of inhibition at 20 µg/disc (Bacillus sp. (Mb 633); read-out: Inhibition zone diameter, Baci 633, @ 20 g/disc): 0 mm
Gastrin-17																			potency for stimulating gastric acid secretion relative to Gastrin-13 (gastric acid secretion): 2.5 times; potency for stimulating gastric acid secretion relative to Gastrin-34 (gastric acid secretion): 5 times

From patent US5242938A, “Derivatives of virginiamycin M1” (Merck & Co., Inc., priority 1992, dated 1993)
